According to patent US20140088027A1, “PHARMACEUTICAL COMPOSITION COMPRISING AN SGLT2 INHIBITOR AND A PPAR- GAMMA AGONIST AND USES THEREOF” (BOEHRINGER INGELHEIM INTERNATIONAL GMBH, priority 2010, published 2014):

How the values were obtained:
[1] = Body weight in cafeteria-diet obese female Wistar rats; format: in vivo, rat; conditions: obese female Wistar rats on cafeteria diet, 28 day treatment
Protocol: (§1) An animal model of obesity was used to study the effect of Cpd. A, Pioglitazone or the combination of Cpd. A with Pioglitazone on body weight and total body fat content. For this, female Wistar rats were made obese by exposure to a simplified cafeteria diet containing high fat chow, chocolate and ground peanuts for approximately 19 weeks. Following the induction of obesity, rats were given vehicle (0.5% aqueous hydroxyethylcellulose) for 7 days and were then dosed orally once-daily with either vehicle, 10 mg/kg Cpd. A, 10 mg/kg Pioglitazone, or the combination of Cpd. A and Pioglitazone for 29 days. For the duration of the study rats were maintained on cafeteria diet.
In FIG. 1, results are mean body weights (adjusted for differences between the body weights of the different treatment groups at baseline (Day 1))±SEM (calculated from the residuals of the statistical model), n=10) after 28 day once-daily oral treatment with the glucopyranosyl-substituted benzene derivative (Cpd. A), Pioglitazone or the combination of both Cpd. A and Pioglitazone at the indicated doses.
Body weight data were analyzed by unpaired t-test. […] Combination of Cpd.

[2] = Body composition (FoodScan NIR) in cafeteria-diet obese female Wistar rats; format: in vivo, rat; conditions: 10 mg/kg po once daily, carcass analysis at Day 31
Protocol: as §1
At the end of the study on Day 31 (24 hours after the last treatment on Day 30) all rats were terminated, the body exsanguinated and the following tissues removed: the caudate liver lobe, the pancreas, the kidneys. Body composition (body fat, protein and water) was determined using the FoodScan NIR (near infra-red) meat analyser (Foss UK). This machine has AOAC (Association of Official Analytical Chemists) approval as reference method for the analysis of moisture, fat and protein in meat. The carcasses were milled under liquid nitrogen and a portion of the milled carcass was analysed in the FoodScan Analyser.
Results are the percentage reduction in each parameter when compared to control and presented along with the corresponding percentage reduction in carcass weight compared to the vehicle-treated control group. Body composition (body fat, protein and water) was determined using the FoodScan NIR (near infra-red) meat analyser (Foss UK).

[3] = test system: Zucker diabetic fatty rats (ZDF/Crl-Lepr^fa); assay: Blood glucose time course in male Zucker diabetic fatty rats; format: in vivo, rat; conditions: freely fed, 2 h after dosing, two weeks once daily po, Cpd. A 1 mg/kg, pioglitazone 10 mg/kg
Source text: The SGLT2 inhibitor is the glucopyranosyl-substituted benzene derivative described as compound (I.9) hereinabove and referred to as “Cpd. A” in the following. The PPARγ agonist is pioglitazone. All experimental protocols concerning the use of laboratory animals were reviewed by a federal Ethics Committee and approved by governmental authorities. The time course of blood glucose was followed over a treatment period of 2 weeks in male Zucker diabetic fatty rats (ZDF/Crl-Lepr^fa) with an age of 10 weeks at the start of the study. A pre-dose blood sample was obtained by tail bleed (day 0) and blood glucose was measured with a glucometer. From day 1 to day 15, the animals (n=5/group) received once daily oral administrations of either vehicle alone (0.5% aqueous hydroxyethylcellulose) or this vehicle containing either Cpd. A or pioglitazone or the combination of the Cpd. A with pioglitazone. Blood glucose was measured in tail blood 2 h after dosing in freely fed animals. The data are presented as mean±S.E.M. Statistical comparison was conducted by repeated measures two-way ANOVA followed by Bonferroni post tests for group-wise comparisons. A p value <0.05 was considered to show a statistically significant difference.
Cpd. A is Cpd. A described as compound (I.9) hereinabove at a dose of 1 mg/kg. Pioglitazone was dosed at 10 mg/kg. Combination Cpd. […]

[4] = Plasma insulin in cafeteria-diet obese female Wistar rats; format: in vivo, rat; conditions: fed, 10 mg/kg po once daily each, after 28/29 days
Protocol: as §1
After 28 days of treatment, blood samples were collected from the tail vein (from fed animals) for analysis of insulin. Plasma insulin values were determined by using a Millipore Luminex RENDO 85K kit.
In FIG. 2, results are mean plasma insulin levels±SEM after 29 days of once-daily oral treatment with the glucopyranosyl-substituted benzene derivative (Cpd. A), Pioglitazone or the combination of both Cpd. A and Pioglitazone at the indicated doses. Plasma insulin values were analyzed by unpaired t-test. P values versus vehicle control are indicated by symbols above the bars (*, p<0.05; **, p<0.01; ***, p<0.001). […] Combination of Cpd.

[5] = metformin on its own, in the diabetic; cited from earlier work

| Structure (SMILES) | increase of body weight compared to vehicle-treated control animals ([1]; 10 mg/kg po once daily each) [%] | Carcass weight (%), percentage reduction compared to vehicle-treated control [2] [%] | Fat (%), percentage reduction compared to control [2] [%] | Protein (%), percentage reduction compared to control [2] [%] | Water (%), percentage reduction compared to control [2] [%] | reduction of blood glucose [3] [%] | reduction of body weight compared to vehicle-treated control ([1]; 10 mg/kg po once daily) [%] | plasma insulin levels versus vehicle control [4] | average improvement in the HbA1c value [5] |
| --- | --- | --- | --- | --- | --- | --- | --- | --- | --- |
| CCc1ccc(CCOc2ccc(CC3SC(=O)NC3=O)cc2)nc1 (centres unmarked) [Pioglitazone, pioglitazone] | 6.8 | 6.2 | 15.4 | 1.1 | 3.6 | 48 |  |  |  |
| OC[C@H]1O[C@@H](c2ccc(Cl)c(Cc3ccc(O[C@H]4CCOC4)cc3)c2)[C@H](O)[C@@H](O)[C@@H]1O [Cpd. A] |  | −3.5 | −4.5 | −1.5 | −0.3 | 37 | 3.1 | reduced the plasma insulin levels significantly |  |
| CN(C)C(=N)N=C(N)N [metformin] |  |  |  |  |  |  |  |  | 1.0-1.5% |
